The nature of this data set: UV maxima for the absorption. It counts as physicochemical. The note with it: spectral region of the absorption. The source says: The following comparison is a common silicone backbone, with differing, “b”, and “c” values. The effect upon solubility at 5% in water and the UV maxima for the absorption are quite dramatic.

Structures are written as SMILES.

Turning to `C=CCc1ccc(O)c(OC)c1` [eugenol, 2-methoxy-4-(2 propenyl)phenol], the UV absorption region entry is recorded as “UV-C region”.

The values are drawn from patent US6500414B2, “Aromatic dimethicone copolyol polymers as sunscreen agents in personal care applications” (Siltech LLC, priority 2000, dated 2002).
